Reference: PubChem BioAssay (NCI)
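Briefly, cells in 96-well plates were exposed to five compound concentrations for 48 h, and endpoints were estimated by linear interpolation. TGI marks complete inhibition of growth.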

Tests used:
Assay in all cases: inhibition of tumour cell growth, NCI panel, 48 h
[1] = system: SR leukemia
[2] = system: EKVX NSCLC
[3] = system: UO-31 renal
[4] = system: OVCAR-8 ovarian
[5] = system: HCT-15 colon
[6] = system: HL-60(TB) leukemia
[7] = system: RPMI-8226 leukemia
[8] = system: MDA-MB-435
[9] = system: HOP-92 NSCLC
[10] = system: OVCAR-3 ovarian
[11] = system: U251 CNS
[12] = system: SK-MEL-2 melanoma
[13] = system: CCRF-CEM leukemia
[14] = system: OVCAR-4 ovarian
[15] = system: ACHN renal
[16] = system: HOP-62 NSCLC
[17] = system: A549 NSCLC
[18] = system: HCC-2998 colon
[19] = system: OVCAR-5 ovarian
[20] = system: MDA-MB-231 breast
[21] = system: BT-549 breast
[22] = system: NCI-H460 lung
[23] = system: K-562 leukemia
[24] = system: NCI/ADR-RES ovarian
[25] = system: NCI-H23 lung
[26] = system: MDA-N
[27] = system: DU-145 prostate
[28] = system: MALME-3M melanoma
[29] = system: UACC-257 melanoma
[30] = system: PC-3 prostate
[31] = system: M14 melanoma
[32] = system: MCF7 breast
[33] = system: SN12C renal
[34] = system: TK-10 renal
[35] = system: 786-0 renal
[36] = system: SK-MEL-28 melanoma
[37] = system: CAKI-1 renal
[38] = system: LOX IMVI melanoma
[39] = system: KM12 colon
[40] = system: HT29 colon
[41] = system: SK-MEL-5 melanoma
[42] = system: SNB-19 CNS
[43] = system: SF-295 CNS
[44] = system: COLO 205 colon
[45] = system: HCT-116 colon
[46] = system: MOLT-4 leukemia
[47] = system: A498 renal
[48] = system: NCI-H522 lung
[49] = system: IGROV1 ovarian
[50] = system: T-47D breast
[51] = system: SF-268 CNS
[52] = system: UACC-62 melanoma
[53] = system: SF-539 CNS
[54] = system: SK-OV-3 ovarian
[55] = system: RXF 393 renal
[56] = system: SW-620 colon
[57] = system: NCI-H226 lung
[58] = system: SNB-75 CNS
[59] = system: HS 578T breast

## COC(=O)c1ccc(OCCn2nnc(C(=O)NN)c2C(=O)NN)cc1
[1]
  TGI: > 100 µM
[2]
  TGI: > 100 µM
[3]
  TGI: > 100 µM
[4]
  TGI: > 100 µM
[5]
  TGI: > 100 µM
[6]
  TGI: > 100 µM
[7]
  TGI: > 100 µM
[8]
  TGI: > 100 µM
[9]
  TGI: > 100 µM
[10]
  TGI: > 100 µM
[11]
  TGI: > 100 µM
[12]
  TGI: > 100 µM
[13]
  TGI: > 100 µM
[14]
  TGI: > 100 µM
[15]
  TGI: > 100 µM
[16]
  TGI: > 100 µM
[17]
  TGI: > 100 µM
[18]
  TGI: > 100 µM
[19]
  TGI: > 100 µM
[20]
  TGI: > 100 µM
[21]
  TGI: > 100 µM
[22]
  TGI: > 100 µM
[23]
  TGI: > 100 µM
[24]
  TGI: > 100 µM
[25]
  TGI: > 100 µM
[26]
  TGI: > 100 µM
[27]
  TGI: > 100 µM
[28]
  TGI: > 100 µM
[29]
  TGI: > 100 µM
[30]
  TGI: > 100 µM
[31]
  TGI: > 100 µM
[32]
  TGI: > 100 µM
[33]
  TGI: > 100 µM
[34]
  TGI: > 100 µM
[35]
  TGI: > 100 µM
[36]
  TGI: > 100 µM
[37]
  TGI: > 100 µM
[38]
  TGI: > 100 µM
[39]
  TGI: > 100 µM
[40]
  TGI: > 100 µM
[41]
  TGI: > 100 µM
[42]
  TGI: > 100 µM
[43]
  TGI: > 100 µM
[44]
  TGI: > 100 µM
[45]
  TGI: > 100 µM
[46]
  TGI: > 100 µM

## Nc1cc(CO)cc(Nc2c3ccccc3nc3ccccc23)c1
[1]
  TGI: > 100 µM
[2]
  TGI: 31.8 µM
[47]
  TGI: 46.6 µM
[3]
  TGI: 32.3 µM
[4]
  TGI: 29.5 µM
[5]
  TGI: 34.4 µM
[6]
  TGI: > 100 µM
[7]
  TGI: > 100 µM
[8]
  TGI: 32.6 µM
[48]
  TGI: 18.9 µM
[10]
  TGI: 32.2 µM
[49]
  TGI: 31.3 µM
[50]
  TGI: 34.4 µM
[11]
  TGI: 28.3 µM
[12]
  TGI: 30.5 µM
[13]
  TGI: > 100 µM
[14]
  TGI: 29.7 µM
[15]
  TGI: 31.9 µM
[16]
  TGI: 28.8 µM
[51]
  TGI: 60 µM
[17]
  TGI: 38.9 µM
[52]
  TGI: 34.5 µM
[19]
  TGI: 32.2 µM
[20]
  TGI: 24.8 µM
[21]
  TGI: 27.7 µM
[22]
  TGI: > 100 µM
[23]
  TGI: > 100 µM
[24]
  TGI: 35.8 µM
[25]
  TGI: 30.1 µM
[26]
  TGI: 35.1 µM
[27]
  TGI: 73.1 µM
[28]
  TGI: 31.8 µM
[29]
  TGI: 28.5 µM
[53]
  TGI: 32 µM
[54]
  TGI: 29.5 µM
[55]
  TGI: 31.4 µM
[30]
  TGI: 36 µM
[31]
  TGI: 31.3 µM
[32]
  TGI: 29.5 µM
[33]
  TGI: 35.9 µM
[34]
  TGI: 30.1 µM
[35]
  TGI: 30.4 µM
[56]
  TGI: 26 µM
[36]
  TGI: 32 µM
[57]
  TGI: 34.9 µM
[37]
  TGI: 31.7 µM
[38]
  TGI: 31.5 µM
[39]
  TGI: 29.8 µM
[40]
  TGI: 28.8 µM
[41]
  TGI: 30.8 µM
[58]
  TGI: 34.5 µM
[43]
  TGI: 25.3 µM
[59]
  TGI: 67.8 µM
[44]
  TGI: 23.8 µM
[45]
  TGI: 28.5 µM
[46]
  TGI: > 100 µM
